According to US20150093351A1, “MALODOR CONTROL COMPOSITIONS HAVING ACTIVATED ALKENES AND METHODS THEREOF” (The Procter & Gamble Company, priority 2012, published 2015):
Structures can show the parent of a compound that is named as a salt.

Assays:
[1] = Headspace SPME GC/MS malodor removal by aqueous Composition 3 (butanethiol); conditions: 0.5 wt. % activated alkene in Composition 3, pH 7, no catalyst; 2 hours room temperature, 30 minutes 35° C.; numbers less than 1 = reduced malodor
Procedure: (§1) All activated alkenes are present in Composition 3 in an amount of 0.5 wt. %, except PEG 400 Dimethylacrylate which is present in Composition 3 in amount of 1.0 wt. %.
(§2) In addition, a Control composition is prepared according to the composition in Table 3, except the activated alkene is omitted. Composition 3 with each activated alkene and the Control composition are then tested for malodor removal performance as described below.
(§3) n-Butanethiol and di-n-propoyl sulfide were chosen as chemical surrogates for sulfur-containing odors such as onion, garlic, sewage, etc. n-Butylamine was used as a representative for amine-containing odors such as fish, pet urine, etc.
(§4) 5 ml of Composition 3 and the Control composition are placed into a separate GC-MS vial and each spiked with 5 microliters of butanthiol or butylamine. The compositions are first equilibrated at room temperature for 2 hours, then incubated at 35° C. for 30 minutes. The headspace of each vial is finally sampled using a polydimethyl siloxane (“PDMS”)/SPME fiber and analyzed by GC/MS. The head space concentrations of odor molecules are measured and the data are normalized to the Control composition.
(§5) Numbers less than 1 denote reduced levels of malodor molecules present in the headspace of Composition 3 relative to the Control composition. The reduced malodor level is attributed to high malodor control efficacy of Composition 3.

[2] = Headspace SPME GC/MS malodor removal by aqueous Composition 3 (butylamine); conditions: 0.5 wt. % activated alkene in Composition 3, pH 7, no catalyst; 2 hours room temperature, 30 minutes 35° C.; numbers less than 1 = reduced malodor
Procedure: as §1, §2, §3, §4, §5

[3] = Headspace SPME GC/MS butanethiol removal by aqueous Composition 5 (activated alkene and catalyst); conditions: for Butanethiol head space concentration normalized to Control, catalyst DBU / Butanethiol head space concentration normalized to Control, catalyst n-hexyl amine / Butanethiol head space concentration normalized to Control, catalyst n-octylamine: Composition 5, 0.5 wt. % activated alkene + catalyst, pH 7; for Butanethiol head space concentration normalized to Control, catalyst DBU: DBU 1:150 molar ratio of catalyst:alkene; for Butanethiol head space concentration normalized to Control, catalyst n-hexyl amine: n-hexyl amine 1:15 molar ratio of catalyst:alkene; for Butanethiol head space concentration normalized to Control, catalyst n-octylamine: n-octylamine 1:15 molar ratio of catalyst:alkene; for Butanethiol head space concentration normalized to Control, No catalyst: Composition 5, 0.5 wt. % activated alkene, pH 7, no catalyst
Procedure: [Worded in the source for another target; this target is reported under the same test.] as §4

[4] = Vapor-phase butanethiol removal, static headspace GC/MS; conditions: 1 μL sample in 10 mL vial, 30 minutes room temperature
Procedure: This example illustrates the malodor removal efficacy of exemplary activated alkenes-catalyst systems in the vapor phase. […] A 1 μL sample of each activated alkene-catalyst combination listed in Table 7 is pipeted into an individual 10 mL silanized headspace vial. The vials are sealed and allowed to equilibrate for at least 12 hours. This procedure is repeated 2 times for each sample. After the equilibration period, 1.5 mL of the target malodor standard vapor is injected into each 10 mL vial. For thiol analysis, the vials containing a sample+malodor standard are held at room temperature for 30 minutes. Then, a 1 mL headspace syringe is then used to inject 250 μL of each sample/malodor into a GC/MS split/splitless inlet. A GC pillow is used for the amine analysis to shorten the run times. Samples are then analyzed using a GC/MS with a DB-5, 20 m, 1 μm film thickness column with an MPS-2 autosampler equipment with static headspace function. Data is analyzed by ion extraction on each total ion current (56 for thiol) and the area is used to calculate the percent reduction from the malodor standard for each sample. Here, the results are reported as % reduction, and higher numbers represent higher reduction in butanethiol concentration.

[5] = benchmark values; cited from earlier work

Row | Molecule | Butanethiol head space concentration normalized to Control composition, Replicate 1 [1] | Butanethiol head space concentration normalized to Control composition, Replicate 2 [1] | Butylamine head space concentration normalized to Control composition, Replicate 1 [2] | Butylamine head space concentration normalized to Control composition, Replicate 2 [2] | Butanethiol head space concentration normalized to Control, catalyst DBU [3] | Butanethiol head space concentration normalized to Control, catalyst n-hexyl amine [3] | Butanethiol head space concentration normalized to Control, catalyst n-octylamine [3] | Butanethiol head space concentration normalized to Control, No catalyst [3] | % reduction in butanethiol concentration, 1% w/w DBU [4] | % reduction in butanethiol concentration, 1% w/w n-hexylamine [4] | % reduction in butanethiol concentration, 1% w/w n-octylamine [4] | % reduction in butanethiol concentration, No catalyst [4] | ambient temperature water solubility (benchmark) [5]
1 | CC(C)=CCCC(C)=CC=O [Citral] | 0.1 | 0.1 | 0.0 | 0.0 |  |  |  |  |  |  |  |  | 
2 | C/C=C/C(=O)C1=C(C)C=CCC1(C)C [Damascenone] | 0.6 | 0.7 | 1.0 | 1.1 | 0.8 | 0.4 | 0.6 | 0.6 |  |  |  |  | 
3 | C/C=C/C(=O)C1C(C)C=CCC1(C)C (stereo not drawn) [Delta Damascone] |  |  |  |  |  |  |  |  | 99.6% | 30.7% | 24.4% | 21% | 
4 | CCOC(=O)/C=C/C(=O)OCC [Diethyl Fumarate] | 0.4 | 0.3 | 0.1 | 0.1 | 0.2 | 0 | 0 | 0.3 | 63% | 3.8% | 11.2% | 20.7% | 
5 | CCOC(=O)/C=C\C(=O)OCC [Diethyl Maleate] | 0.7 | 0.6 | 0.5 | 0.0 | 0.5 | 0.1 | 0.04 | 0.7 | 44.3% | 13.3% | 8.1% | 24.5% | 
6 | CCc1occc(=O)c1O [Ethyl Maltol] | 0.8 | 0.9 | 0.0 | 0.0 |  |  |  |  |  |  |  |  | 
7 | C=CC(=O)OCCCCCC [Hexyl Acrylate] | 0.1 | 0.1 | 0.6 | 0.5 | 0.2 | 0.02 | 0 | 0.1 | 23.1% | 11.2% | 21% | 31.9% | 
8 | C=CC(=O)N(C)C [N,N Dimethyl Acrylamide] | 0.8 | 0.8 | 1.0 | 1.0 | 0.3 | 0.6 | 0.7 | 0.8 |  |  |  |  | 
9 | O=C1C=CC(=O)N1C1CCCCC1 [N-Cyclohexylmaleimide] | 0.0 | 0.0 | 0.0 | 0.0 |  |  |  |  |  |  |  |  | 
10 | OC[C@H]1O[C@@H]2O[C@H]3[C@H](O)[C@@H](O)[C@@H](O[C@H]4[C@H](O)[C@@H](O)[C@@H](O[C@H]5[C@H](O)[C@@H](O)[C@@H](O[C@H]6[C@H](O)[C@@H](O)[C@@H](O[C@H]7[C@H](O)[C@@H](O)[C@@H](O[C@H]8[C@H](O)[C@@H](O)[C@@H](O[C@H]1[C@H](O)[C@H]2O)O[C@@H]8CO)O[C@@H]7CO)O[C@@H]6CO)O[C@@H]5CO)O[C@@H]4CO)O[C@@H]3CO [beta-cyclodextrin] |  |  |  |  |  |  |  |  |  |  |  |  | 1.8 g/100 ml
11 | O=C1C=CC(=O)N1c1ccccc1 [n-phenylmaleimide] |  |  |  |  |  |  |  |  | 10% | 1.5% | 2.2% | 12.4% | 
12 | N,N dimethylacrylamide-4- methoxy phenol |  |  |  |  |  |  |  |  | 95.2% | 50% | 22.3% | 28.2% | 
13 | hydroxypropyl modified beta cyclodextrin |  |  |  |  |  |  |  |  |  |  |  |  | ≥ 60 g/100 ml
